Assay [1] has as its target T1, mouse PDGF-β receptor tyrosine kinase (Mus musculus, UniProt P05622).
T1 construct: a fragment of DNA that codes for the intracellular tyrosine kinase domain; made in house; host or cells: Sf9 insect cells (baculovirus), cell lysate
Nature of the assay: PDGF receptor tyrosine kinase assay. In kind it is biochemical. The settings on record: read-out: Inhibition of Protein Tyrosine Kinases, PDGF, IC50. A digest of the protocol: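 Intracellular kinase domains expressed in baculovirus-infected SF9 cells; crude lysate used as enzyme. Inhibitor preincubated 10 min at 25 °C with lysate in pH 7.0 Hepes buffer with 10 mM MnCl2 and poly(Glu-Tyr) 4:1, then γ-32P-ATP (50 μM ATP) added for 10 min at 25 °C. TCA-precipitated 32P on filters counted, no-enzyme background subtracted.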

The next assay has as its system V-src kinase. In words: V-src kinase assay. In kind it is biochemical. The settings on record: at 50 μM. A digest of the protocol:
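Baculovirus-expressed v-src or c-src, immunopurified on antibody-coated latex beads, phosphorylated poly GluTyr with 5 μM ATP including [32P]-ATP in Tris pH 7.5/MgCl2. Reaction ran 10 min at room temperature, TCA/pyrophosphate quench, then filtered. Incorporated label counted by liquid scintillation and compared with solvent control.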

We go through one compound from US5733913A, “6-Aryl pyrido[2,3-d] pyrimidines and naphthyridines for inhibiting protein tyrosine kinase mediated cellular proliferation” (priority 1995, dated 1998).

pIC50: −log10 of the molar value.

T1 sequence (P05622 599-961 limits assumed): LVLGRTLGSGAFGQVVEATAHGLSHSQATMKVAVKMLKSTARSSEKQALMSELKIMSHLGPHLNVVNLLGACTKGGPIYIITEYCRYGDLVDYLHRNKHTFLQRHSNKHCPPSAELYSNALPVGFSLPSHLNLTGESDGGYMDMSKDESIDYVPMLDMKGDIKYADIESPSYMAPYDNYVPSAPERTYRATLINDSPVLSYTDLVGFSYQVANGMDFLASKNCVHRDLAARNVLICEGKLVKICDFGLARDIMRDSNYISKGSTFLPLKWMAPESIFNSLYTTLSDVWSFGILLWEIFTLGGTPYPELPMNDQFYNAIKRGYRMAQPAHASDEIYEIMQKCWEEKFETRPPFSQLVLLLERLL

The term pIC50 denotes the negative decadic logarithm of the IC50, by convention in mol/L. `Cc1ccccc1-c1cc2cnc(N)nc2nc1N` [Example 90, 6-o-Tolyl-pyrido[2,3-d]pyrimidine-2,7-diamine]: the negative logarithm of the IC50 (pIC50) in assay [1] was 5.10. For the same compound, in the assay with V-src kinase, the “Inhibition of Protein Tyrosine Kinases, V-src, % Inhibition” value is recorded as 16.8%.
